Measurements taken from US8921362B2, “6,7-dialkoxy quinazoline derivatives and methods of treating drug resistant and other tumors” (Natco Pharma Limited, priority 2008, dated 2014).
Counter-ions that a name gives are not always drawn. Like-named read-outs stand apart in the source and are kept apart here.

How the values were obtained:
[1] = 30 day repeated dose study; conditions: both sexes, dog, in vivo, po, beagle dogs, orally by capsule, read-out: no observed adverse effect level (NOAEL)
Method: The methods followed were as per CPMP/SWP/1042/99 (July 2000) and ICH S3A (March (1995)) guidelines. Prior to the 30 day repeated dose study, a dose range finding study was conducted, which included single dose MTD study followed by a 10 day repeated dose study. For the single dose MTD study, two dogs (1 male and 1 female) of beagle breed, obtained from Marshall's Farm, China, were used. The route of dosing was oral, by gelatin capsule. Based on the results of the dose range finding study, doses for the 30 days study were selected.
The 30 day repeated dose study employed 12 male and 12 female dogs (Marshall's Farm, China). The dogs were acclimatized for a minimum period of 2 weeks and randomly divided into four main groups (G1-G4), each group comprising of 3 dogs per sex. […]
(§1) The study also tracked body weight (weekly), food consumption (daily), opthalmological status (start and end), hematological and biochemical analyses (start and end), toxicokinetics analysis of plasma (start and end). At the end of the study, all dogs were euthanized by a humane and accepted procedure, subjected to a gross post-mortem examination, organ weights (absolute and relative) were determined, and histopathological examination was carried out.

in vivo [2] = conditions: both, Swiss albino, mouse, po
Method: (§3) 20 male and 20 female Swiss albino mice were randomly divided into four groups (G1-G4). Each group was 5 male and 5 female Swiss albino mice. […] G1 was treated with placebo and served as a control. […] The mid dose group animals (G3-treated with 500 mg/kg b.wt) were administered the dose formulation twice with a gap of approximately 1 hour. Animals from high dose group (G4-treated with 1000 mg/kg b.wt) received the dose formulation four times with a gap of approximately one hour.

[3] = Acute oral gavage toxicity (MTD); conditions: G4, 1000 mg/kg body wt., rats
[4] = Acute oral gavage toxicity (MTD)
Method: as §3

[5] = test system: Salmonella typhimurium (TA 98, TA 100, TA 102, TA 1535 and TA 1537); assay: Ames bacterial reverse mutation assay; format: cell-based; conditions: 0.0125-1.2500 mg/plate, with and without S9
Method: The present study was conducted by the direct plate incorporation method with five tester strains of Salmonella typhimurium (TA 98, TA 100, TA 102, TA 1535 and TA 1537). […] Simultaneously, negative control cultures received DMSO and the respective positive controls received the mutagens 2-Amino anthracene, 2-Nitrofluorene, Sodium azide, 9-Aminoacridine and Mitomycin C (Sigma, St. Louis). In order to study the role of metabolic activation, cultures were incubated both with and without S9 mixture. The induction of Histidine positive colonies was computed and results were statistically treated for comparison.

[6] = Cardiovascular parameters in telemetered dogs; format: in vivo; conditions: male Beagle dogs
Method: The study was conducted in accordance with ICH “S7A Safety Pharmacology Studies for Human Pharmaceuticals, Note for Guidance on Safety Pharmacology Studies for Human Pharmaceuticals, July 2001”. The doses tested were 0, 15, 30 and 60 mg/kg b.wt. given orally by gelatin capsule. Four male Beagle dogs, each implanted with a TL1IM2-D70-PCT transmitter (Data Sciences International, USA), were used for the study. During the study, the dogs were administered 4 oral treatments representing placebo and all test substance treatment groups with a three day (˜72 hour) wash-out period between each administration, using a Latin square cross-over design.
On dosing days, the telemetered dogs were observed once before commencement of data collection, continuously through 2 hours post-dose remotely and ˜8 hours post-dose for changes in behaviour. Cardiovascular parameters (systolic, diastolic and mean blood pressure, pulse pressure and heart rate) were recorded continuously for ˜60 minutes before dosing and up to 24 hours after dosing. Systolic, diastolic and mean blood pressures, pulse pressure and heart rate were obtained from the femoral artery waveform. Electrocardiograms were recorded continuously for ˜60 minutes before dosing and up to 24 hours after dosing. […] Heart rate and QT intervals were determined from the ECG's.

[7] = Respiratory function, whole body plethysmograph; format: in vivo, Wistar rats; conditions: 75, 125 and 250 mg/kg body weight, oral, 3 hours
Method: This study evaluated the effect of NRC-2694A monohydrochloride on respiratory function in conscious Wistar rats following administration of a single dose using a whole body plethysmograph. The study was conducted in accordance with “S7A Safety Pharmacology Studies for Human Pharmaceuticals, ICH” issued July 2001. The study used a parallel design with one vehicle and three test item treated groups. […] Male Wistar rats were placed in plethysmography chambers and baseline respiratory parameters were recorded for 30 minutes. Following drug administration respiratory parameters were recorded continuously for 3 hours.

[8] = Functional observational battery (FOB); format: in vivo, Wistar rats; conditions: 75, 125 and 250 mg/kg b.wt single oral dose, 60-120 min post treatment
Method: The study was conducted in accordance with “[…] Safety Pharmacology Studies for Human Pharmaceuticals, ICH” July 2001, and as per this study protocol. […] Rats that had been fasted for 16 to 18 hours (access to water was not interrupted) were dosed with the compound or water. The rats were administered the compound in an aqueous formulation at three levels, 75, 125 and 250 mg/kg b.wt, as a single oral dose by gavage. The control group received water. The rats were subjected to the FOB 60-120 min. after drug administration.
Animals were subjected to the FOB one at a time except for the multiple activity cage where four animals were placed in four different cages simultaneously. Once complete, the animals were returned to their home cage and the cage placed back on the stand.

[9] = Toxicokinetics in 30 day repeated dose study; format: in vivo, beagle dogs; conditions: for Tmax: beagle, dog, plasma, po, read-out: median Tmax
Method: The 30 day repeated dose study employed 12 male and 12 female dogs (Marshall's Farm, China). The dogs were acclimatized for a minimum period of 2 weeks and randomly divided into four main groups (G1-G4), each group comprising of 3 dogs per sex. The animals were dosed orally with capsules of NRC-2694A for a period of 30 consecutive days at dose levels of 10 mg/kg b.wt/day (G2-low dose), 20 mg/kg b.wt/day (G3-mid dose) and 40 mg/kg b. wt/day (G4-high dose). […] The control group (G1-0 mg/kg b. wt/day) animals were dosed by oral capsule with placebo.
as §1
The toxicokinetic parameters viz.

A549 human lung tumors = assay: Subcutaneous lung tumors in nude mice; format: in vivo; conditions: 100 mg/Kg dose
From the text: Nude mice were implanted with 2×10^6 A549 cells in the right hind limb flank.

H1299 and A549 cells = assay: Matrigel invasion assay; format: cell-based, human; conditions: 48 hr treatment, FIG. 2
Method: The in vitro invasiveness of H1299 and A549 cells in the presence of various concentrations of NRC compounds (as determined by MTT assay) was assessed using a modified Boyden chamber assay. Cells were treated with these compounds for 48 hr. 1×10^6 cells were suspended in 600 μl of serum-free medium supplemented with 0.2% BSA and placed in the upper compartment of the transwell chambers (Corning Costar Fisher Scientific cat #07-200-158, Pittsburgh Pa.) coated with matrigel (0.7 mg/ml). The lower compartment of the chamber was filled with 200 μl of serum medium and the cells were allowed to migrate for 24 hr. After incubation, the cells were fixed and stained with Hema-3 and quantified as previously described (Mohanam et al. 1993). The migrated cells were quantified as percent invasion.

VEGFR = assay: Down regulation of receptors, western blot in A549 cells; format: cell-based, human; conditions: FIG. 8
Method: (§2) Levels of Erb-1, Erb-2, Erb-3, Erb-4 and VEGFR were determined by western blot analysis.

[10] = Acute toxicity (LD0, LD50); format: in vivo; conditions: po, mice, single dose
Method: […]. The doses 500, 750, 1000 and 2000 mg/Kg were administered orally. Each group included 5 mice. […] The survived animals were autopsied for asserting the absorption of compound through g.i.t. The LD50 was determined according to the method described in Litchfield and Wilcoxon (J. Pharmacol. Exp. Ther. 1949, 96:99-113).

in vivo [11] = conditions: both, Swiss albino, mouse, po; remark: listed apart in the source
[12] = test system: A549 luciferase expressing cells; assay: Nude mice implanted with A549 luciferase expressing cells; format: in vivo; conditions: oral and ip routes, FIGS. 6 & 7
[13] = test system: A549 luciferase expressing cells; assay: Lung tissue harvested from nude mice after treatment; format: in vivo; conditions: oral/ip routes, various concentrations, FIG. 4
ERBB4 = ERBB4 (Homo sapiens, UniProt Q15303); assay: Down regulation of receptors, western blot in A549 cells; format: cell-based; design: endogenous in cells; host or cells: A549; conditions: FIG. 8
Method: as §2

ERBB2 = ERBB2 (Homo sapiens, UniProt P04626); assay: as above; format: cell-based; design: endogenous in cells; host or cells: A549; conditions: FIG. 8
Method: as §2

[14] = po, Swiss Albino mice, suspended in 2% gum acacia

Chain of ERBB4 (Q15303 26-1308): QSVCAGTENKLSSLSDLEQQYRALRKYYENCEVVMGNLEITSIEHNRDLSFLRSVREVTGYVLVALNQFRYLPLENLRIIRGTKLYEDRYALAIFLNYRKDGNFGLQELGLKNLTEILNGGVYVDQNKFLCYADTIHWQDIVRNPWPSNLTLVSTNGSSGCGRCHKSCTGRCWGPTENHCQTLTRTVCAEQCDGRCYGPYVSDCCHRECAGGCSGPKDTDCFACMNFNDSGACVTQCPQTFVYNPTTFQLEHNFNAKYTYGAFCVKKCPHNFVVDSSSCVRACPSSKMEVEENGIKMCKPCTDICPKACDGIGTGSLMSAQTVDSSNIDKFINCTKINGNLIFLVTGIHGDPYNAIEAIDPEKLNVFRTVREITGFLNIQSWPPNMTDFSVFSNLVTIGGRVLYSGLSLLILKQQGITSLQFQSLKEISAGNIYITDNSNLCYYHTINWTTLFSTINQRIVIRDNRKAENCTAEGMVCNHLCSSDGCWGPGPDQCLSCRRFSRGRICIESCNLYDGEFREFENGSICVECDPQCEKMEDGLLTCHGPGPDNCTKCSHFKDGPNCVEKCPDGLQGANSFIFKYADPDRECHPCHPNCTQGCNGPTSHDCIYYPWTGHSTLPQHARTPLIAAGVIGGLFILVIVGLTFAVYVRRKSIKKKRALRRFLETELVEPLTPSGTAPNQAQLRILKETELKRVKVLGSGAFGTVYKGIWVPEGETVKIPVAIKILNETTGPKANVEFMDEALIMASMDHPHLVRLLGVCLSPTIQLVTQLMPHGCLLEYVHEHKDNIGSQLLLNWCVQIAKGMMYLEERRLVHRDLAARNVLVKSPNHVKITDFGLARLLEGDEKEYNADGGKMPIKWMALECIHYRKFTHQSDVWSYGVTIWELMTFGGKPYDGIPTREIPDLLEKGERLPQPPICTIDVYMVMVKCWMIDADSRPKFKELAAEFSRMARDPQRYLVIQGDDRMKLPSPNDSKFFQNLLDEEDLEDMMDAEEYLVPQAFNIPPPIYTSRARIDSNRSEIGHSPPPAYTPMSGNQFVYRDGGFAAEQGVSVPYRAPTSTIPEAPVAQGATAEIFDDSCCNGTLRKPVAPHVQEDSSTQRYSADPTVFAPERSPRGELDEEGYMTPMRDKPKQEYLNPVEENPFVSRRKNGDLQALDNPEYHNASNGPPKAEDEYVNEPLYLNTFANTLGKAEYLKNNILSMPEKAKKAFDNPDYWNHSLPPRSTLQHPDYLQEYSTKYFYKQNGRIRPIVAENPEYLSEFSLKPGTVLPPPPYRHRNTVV
Chain of ERBB2 (P04626 23-1255): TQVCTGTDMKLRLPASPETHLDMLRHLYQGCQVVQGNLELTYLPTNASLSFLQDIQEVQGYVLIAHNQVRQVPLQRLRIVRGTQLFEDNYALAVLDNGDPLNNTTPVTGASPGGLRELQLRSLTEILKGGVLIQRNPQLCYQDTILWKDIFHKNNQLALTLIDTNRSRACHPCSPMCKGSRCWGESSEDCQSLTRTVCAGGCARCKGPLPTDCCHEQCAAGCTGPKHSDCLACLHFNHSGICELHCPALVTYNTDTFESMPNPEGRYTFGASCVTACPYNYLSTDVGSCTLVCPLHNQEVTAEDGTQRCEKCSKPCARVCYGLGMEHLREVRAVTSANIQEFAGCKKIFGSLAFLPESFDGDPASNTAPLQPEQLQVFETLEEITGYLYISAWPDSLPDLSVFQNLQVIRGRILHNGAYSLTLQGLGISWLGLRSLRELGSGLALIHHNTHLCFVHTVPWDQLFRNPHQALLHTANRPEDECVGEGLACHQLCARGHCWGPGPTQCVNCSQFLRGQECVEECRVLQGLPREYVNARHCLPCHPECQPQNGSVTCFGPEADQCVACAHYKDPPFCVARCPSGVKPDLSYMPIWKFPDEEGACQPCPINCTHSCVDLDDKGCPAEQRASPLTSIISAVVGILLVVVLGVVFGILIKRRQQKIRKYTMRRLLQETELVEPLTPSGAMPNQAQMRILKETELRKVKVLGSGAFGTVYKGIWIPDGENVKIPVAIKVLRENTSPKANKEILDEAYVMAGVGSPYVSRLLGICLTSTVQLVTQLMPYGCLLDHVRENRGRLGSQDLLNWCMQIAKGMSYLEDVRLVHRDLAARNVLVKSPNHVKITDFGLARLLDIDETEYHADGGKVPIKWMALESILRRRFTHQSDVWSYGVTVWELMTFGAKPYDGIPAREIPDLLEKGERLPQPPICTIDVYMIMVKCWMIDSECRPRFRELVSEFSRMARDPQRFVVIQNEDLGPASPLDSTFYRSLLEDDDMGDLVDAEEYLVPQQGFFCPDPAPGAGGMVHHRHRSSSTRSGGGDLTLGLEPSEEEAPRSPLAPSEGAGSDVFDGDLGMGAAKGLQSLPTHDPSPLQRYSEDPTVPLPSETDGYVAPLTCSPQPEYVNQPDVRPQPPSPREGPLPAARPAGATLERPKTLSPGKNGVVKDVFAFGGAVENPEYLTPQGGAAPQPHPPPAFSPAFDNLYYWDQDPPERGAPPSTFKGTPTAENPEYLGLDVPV
Method for A549 and H1299 cells: Solubilization of the cells by the addition of a detergent results in the liberation of the crystals, which are solubilized. The number of surviving cells is directly proportional to the level of the formazan product created. The color can then be quantified using a simple colorimetric assay. This assay was done using 0-1000 ng/ml concentrations of Erlotinib and the test compounds in A549 and H1299 cells.

C#Cc1cccc(Nc2ncnc3cc(OC)c(OCCCN4CCOCC4)cc23)c1.Cl [NRC-2694 monohydrochloride, N-(3-ethynylphenyl)-7-methoxy-6-[3-(4-morpholinyl)propoxy]-4-quinazolinamine mono hydrochloride]
NOAEL at 30 days [1]: 10 mg/kg/day | MTD at 14 days (in vivo [2]): 1000 mg/kg | chromodacryoorhea (animals affected) [3]: 10/10 | mild to severe lethargy (animals affected) [3]: 10/10 | piloerection (animals affected) [3]: 10/10 | ptosis (animals affected) [3]: 4/10 | weakness (animals affected) [3]: 1/10 | toxic signs or mortality ([4]; 250 mg/kg and 500 mg/kg, oral gavage, mice): did not produce any toxic signs or mortality | mutagenicity (His revertant colonies) [5]: non-mutagenic | cardiovascular parameters (blood pressure, pulse pressure, heart rate, QT, QTcf) ([6]; 15, 30 and 60 mg/kg b.wt. oral): no significant negative effects on cardiovascular parameters | no observed effect level ([6]; cardiovascular parameters, oral): 60 mg/kg b.wt. | respiratory rate, tidal volume, minute volume, and Penh [7]: did not influence any of the observed parameters | functional observational battery [8]: did not show any adverse effects at the tested doses | Tmax ([9]; day 1, female, 10 mg/kg): 2 h | Tmax ([9]; day 1, female, 40 mg/kg): 4 h | Tmax ([9]; day 1, male, 10 mg/kg): 2 h | Tmax ([9]; day 1, male, 20 mg/kg): 3 h | Tmax ([9]; day 1, male, 40 mg/kg): 2 h | Tmax ([9]; day 30, female, 20 mg/kg): 4 h | Cmax ([9]; three dose levels, male and female dogs): dose-dependent change in the Cmax

C#Cc1cccc(Nc2ncnc3cc(OCCOC)c(OCCOC)cc23)c1 [Erlotinib HCl, N-(3-Ethylnylphenyl)-6,7-bis(2-methoxyethoxy)-4-quinazolinamine]
NOAEL at 30 days [1]: 5 mg/kg/day | MTD at 14 days ([4]; both, Swiss albino, mouse, in vivo, po): 500 mg/kg | tumor regression (A549 human lung tumors): tumors were still present | invasion (H1299 and A549 cells): dose dependent decrease in invasion | VEGFR levels (VEGFR): no such indication was seen | LD50 at 14 days ([10]; both sexes, mouse, in vivo): 805 mg/kg | LD0 ([10]; no mortality at end of 7 days): 500 mg/kg | MTD at 72 h (in vivo [11]): 500 mg/kg | tumors at the end of 42 days treatment [12]: residual tumors were still present | IC50 (A549 and H1299 cells): 836 ng/mL | residual tumors in harvested lungs [13]: tumors were still present | Erb B4 levels (ERBB4): no such indication was seen | Erb B2 levels (ERBB2): no such indication was seen | MTD [14]: 500 mg/kg
